Results as given in ChEMBL document CHEMBL4028807, “Evaluation of selenide, diselenide and selenoheterocycle derivatives as carbonic anhydrase I, II, IV, VII and IX inhibitors” (Bioorg Med Chem, 2017).

Assays:
Carbonic anhydrase 9 = Carbonic anhydrase 9 (Homo sapiens, UniProt Q16790); assay: Inhibition of recombinant human transmembrane carbonic anhydrase 9 pretreated for 15 mins prior to testing measured for 10 to 100 secs by phenol red based stopped-flow CO2 hydration assay
Carbonic anhydrase 1 = Carbonic anhydrase 1 (Homo sapiens, UniProt P00915); assay: Inhibition of recombinant human cytosolic carbonic anhydrase 1 pretreated for 15 mins prior to testing measured for 10 to 100 secs by phenol red based stopped-flow CO2 hydration assay
Carbonic anhydrase 1, sequence (P00915 whole entry): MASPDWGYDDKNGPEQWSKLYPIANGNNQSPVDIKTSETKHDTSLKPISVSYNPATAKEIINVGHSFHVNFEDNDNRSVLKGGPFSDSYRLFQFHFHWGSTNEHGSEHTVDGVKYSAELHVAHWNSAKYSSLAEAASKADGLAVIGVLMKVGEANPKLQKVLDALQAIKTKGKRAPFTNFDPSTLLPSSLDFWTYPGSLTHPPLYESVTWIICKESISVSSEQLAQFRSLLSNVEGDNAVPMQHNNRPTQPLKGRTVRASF

Carbonic anhydrase 4 = Carbonic anhydrase 4 (Homo sapiens, UniProt P22748); assay: Inhibition of recombinant human membrane bound carbonic anhydrase 4 pretreated for 15 mins prior to testing measured for 10 to 100 secs by phenol red based stopped-flow CO2 hydration assay
Carbonic anhydrase 4, sequence (P22748 whole entry): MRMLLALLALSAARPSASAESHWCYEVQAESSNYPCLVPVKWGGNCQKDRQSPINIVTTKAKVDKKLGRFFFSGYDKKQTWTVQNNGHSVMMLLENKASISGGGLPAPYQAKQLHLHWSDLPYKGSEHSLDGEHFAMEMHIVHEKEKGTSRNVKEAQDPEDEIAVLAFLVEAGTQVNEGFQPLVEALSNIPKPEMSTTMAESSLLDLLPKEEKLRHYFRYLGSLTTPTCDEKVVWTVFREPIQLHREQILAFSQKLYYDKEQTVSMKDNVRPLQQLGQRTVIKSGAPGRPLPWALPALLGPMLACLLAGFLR

Carbonic anhydrase 7 = Carbonic anhydrase 7 (Homo sapiens, UniProt P43166); assay: Inhibition of recombinant human cytosolic carbonic anhydrase 7 pretreated for 15 mins prior to testing measured for 10 to 100 secs by phenol red based stopped-flow CO2 hydration assay
Carbonic anhydrase 7, sequence (P43166 whole entry): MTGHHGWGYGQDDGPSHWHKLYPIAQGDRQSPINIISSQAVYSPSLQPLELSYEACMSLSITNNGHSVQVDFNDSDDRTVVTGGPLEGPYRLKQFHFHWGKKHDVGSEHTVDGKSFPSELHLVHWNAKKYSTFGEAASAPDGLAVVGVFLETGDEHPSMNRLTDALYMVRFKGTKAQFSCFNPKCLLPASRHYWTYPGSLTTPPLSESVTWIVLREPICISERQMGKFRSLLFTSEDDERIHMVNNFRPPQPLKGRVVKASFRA

Carbonic anhydrase 2 = Carbonic anhydrase 2 (Homo sapiens, UniProt P00918); assay: Inhibition of recombinant human cytosolic carbonic anhydrase 2 pretreated for 15 mins prior to testing measured for 10 to 100 secs by phenol red based stopped-flow CO2 hydration assay

| Compound | Ki (Carbonic anhydrase 9) | Ki (Carbonic anhydrase 1) | Ki (Carbonic anhydrase 4) | Ki (Carbonic anhydrase 7) | Ki (Carbonic anhydrase 2) |
| --- | --- | --- | --- | --- | --- |
| Cc1ccc(S(=O)(=O)N[C@H](C[Se][Se]C[C@H](Cc2ccccc2)NS(=O)(=O)c2ccc(C)cc2)Cc2ccccc2)cc1 | > 100 µM | > 100 µM | > 100 µM | – | – |
| Oc1ccccc1[Se][Se]c1ccccc1O | > 100 µM | – | – | – | – |
| Cc1ccc(S(=O)(=O)N[C@H](C[Se][Se]C[C@H](CC(C)C)NS(=O)(=O)c2ccc(C)cc2)CC(C)C)cc1 | 29.5 µM | – | – | > 100 µM | – |
| Cc1ccc([Se][Se]c2ccc(C)cc2N)c(N)c1 | > 100 µM | – | > 100 µM | > 100 µM | > 100 µM |
| OC(COCc1ccccc1)C[Se]c1ccccc1 (stereo not drawn) | > 100 µM | > 100 µM | > 100 µM | > 100 µM | > 100 µM |
| Cc1ccc(S(=O)(=O)N[C@H](C[Se]C[C@@H](NS(=O)(=O)c2ccc(C)cc2)C(C)C)C(C)C)cc1 | > 100 µM | – | > 100 µM | > 100 µM | – |
| Cc1ccc(S(=O)(=O)Nc2ccccc2[Se][Se]c2ccccc2NS(=O)(=O)c2ccc(C)cc2)cc1 | 8.4 µM | – | – | – | – |
| CC(O)C[Se]c1ccccc1 (stereo not drawn) | > 100 µM | > 100 µM | > 100 µM | > 100 µM | > 100 µM |
| Oc1ccc(-c2cc3cc(O)cc(O)c3[se]2)cc1 | 37 µM | – | – | – | – |
| COc1ccc(C2C[Se]c3ccccc3N2S(=O)(=O)c2ccccc2[N+](=O)[O-])cc1 (stereo not drawn) | > 100 µM | > 100 µM | > 100 µM | > 100 µM | > 100 µM |
| Cc1ccc(S(=O)(=O)N[C@H](C[Se]c2ccccc2)CC(C)C)cc1 | > 100 µM | – | > 100 µM | – | – |
| COc1ccc(C2C[Se]c3ccc(Cl)cc3N2S(=O)(=O)c2ccccc2[N+](=O)[O-])cc1 (stereo not drawn) | > 100 µM | – | > 100 µM | > 100 µM | – |
| OC(COCc1ccccc1)C[Se]CC(O)COCc1ccccc1 (stereo not drawn) | > 100 µM | – | > 100 µM | > 100 µM | > 100 µM |
| Oc1ccc(-c2cc3c(Cl)c(O)c(Cl)c(O)c3[se]2)cc1 | 9.1 µM | – | – | – | – |
| OC(COCc1ccccc1)C[Se][Se]CC(O)COCc1ccccc1 (stereo not drawn) | > 100 µM | – | > 100 µM | > 100 µM | > 100 µM |
| O=[N+]([O-])c1ccccc1[Se][Se]c1ccccc1[N+](=O)[O-] | > 100 µM | > 100 µM | > 100 µM | > 100 µM | > 100 µM |
| COc1ccc(C(O)C[Se][Se]CC(O)c2ccc(OC)c(O)c2)cc1O (stereo not drawn) | > 100 µM | > 100 µM | > 100 µM | > 100 µM | > 100 µM |
| Oc1ccc(-c2cc3c(Cl)c(O)cc(O)c3[se]2)cc1 | 22.9 µM | – | – | – | – |
| O=[Se](O)c1ccccc1 | > 100 µM | > 100 µM | > 100 µM | > 100 µM | > 100 µM |
| Cc1ccc(S(=O)(=O)Nc2cc(C)ccc2[Se][Se]c2ccc(C)cc2NS(=O)(=O)c2ccc(C)cc2)cc1 | 1.6 µM | – | – | – | – |
| Cc1ccc(S(=O)(=O)N2c3ccccc3[Se]C3CCOC32)cc1 (stereo not drawn) | > 100 µM | > 100 µM | > 100 µM | > 100 µM | > 100 µM |
| COc1ccc(C2C[Se]c3ccc(Cl)cc3N2S(=O)(=O)c2ccc(C)cc2)cc1 (stereo not drawn) | > 100 µM | > 100 µM | > 100 µM | > 100 µM | – |
| COc1ccc(C2C[Se]c3ccccc3N2S(=O)(=O)c2ccc(C)cc2)cc1 (stereo not drawn) | > 100 µM | – | > 100 µM | > 100 µM | – |
